In ChEMBL document CHEMBL5375955, “Discovery of New Fusobacterium nucleatum Inhibitors to Attenuate Migratory Capability of Colon Cancer Cells by the Drug Repositioning Strategy” (J Med Chem, 2023):
In brackets after ≈: the same amount, converted by molar mass. Activity calls are given as the source filed them. No cut-off for these calls is given here.

Tests used:
Fusobacterium nucleatum [1] = assay: Antibacterial activity against Fusobacterium nucleatum ATCC 23726 assessed as bacterial growth inhibition incubated for 48 hrs by broth dilution susceptibility test; assay type: functional
MC-38 = assay: Antiproliferative activity against mouse MC-38 cells assessed as inhibition of cell growth incubated for 48 hrs by CCK-8 assay; assay type: functional, cell-based; conditions: MC-38, 48 h
HCT-116 = assay: Antiproliferative activity against human HCT-116 cells assessed as inhibition of cell growth incubated for 48 hrs by CCK-8 assay; assay type: functional, cell-based; conditions: HCT-116, 48 h
[2] = Cytotoxicity against HUVEC cells assessed as inhibition of cell growth incubated for 48 hrs by CCK-8 assay; assay type: toxicity, cell-based; conditions: human
[3] = Cytotoxicity against human L02 cells assessed as inhibition of cell growth incubated for 48 hrs by CCK-8 assay; assay type: toxicity, cell-based
Fusobacterium nucleatum [4] = assay: Antibacterial activity against Fusobacterium nucleatum ATCC 23726 assessed as bacterial growth inhibition at 4 ug/ml incubated for 72 hrs by turbidimeter analysis; assay type: functional, organism-based; conditions: dose 4.0 µg/ml
Fusobacterium nucleatum [5] = assay: Antibacterial activity against Fusobacterium nucleatum ATCC 23726 assessed as bacterial growth inhibition incubated for 72 hrs by turbidimeter analysis; assay type: functional, organism-based
Fusobacterium nucleatum [6] = assay: Antibacterial activity against Fusobacterium nucleatum ATCC 23726 assessed as bacterial growth inhibition at 8 ug/ml incubated for 72 hrs by turbidimeter analysis relative to control; assay type: functional; parameters: scale not given: the % may be the effect or the level left; conditions: dose 8 µg/ml
Fusobacterium nucleatum [7] = assay: Antibiofilm activity against Fusobacterium nucleatum ATCC 23726 assessed as inhibition of biofilm formation incubated for 48 hrs by crystal violet staining based assay; assay type: functional, organism-based; conditions: dose 0.5-16 µg/ml
Fusobacterium nucleatum [8] = assay: Antibiofilm activity against Fusobacterium nucleatum ATCC 23726 assessed as inhibition of biofilm formation at 1 ug/ml incubated for 48 hrs by crystal violet staining based assay relative to control; assay type: functional
Escherichia coli = assay: Antibacterial activity against Escherichia coli […] assessed as bacterial growth inhibition incubated for 48 hrs by broth dilution susceptibility test; assay type: functional
Enterococcus faecalis = assay: Antibacterial activity against Enterococcus faecalis ATCC 29212 assessed as bacterial growth inhibition incubated for 48 hrs by broth dilution susceptibility test; assay type: functional
Staphylococcus aureus = assay: Antibacterial activity against Staphylococcus aureus ATCC 6538 assessed as bacterial growth inhibition incubated for 48 hrs by broth dilution susceptibility test; assay type: functional
[9] = test system: Peptostreptococcus anaerobius; assay: Antibacterial activity against Peptostreptococcus anaerobius ATCC 27337 assessed as bacterial growth inhibition incubated for 48 hrs by broth dilution susceptibility test; assay type: functional
Akkermansia muciniphila = assay: Antibacterial activity against Akkermansia muciniphila ATCC BAA-835 assessed as bacterial growth inhibition incubated for 48 hrs by broth dilution susceptibility test; assay type: functional
[10] = test system: Salmonella enterica subsp. enterica serovar Paratyphi B; assay: Antibacterial activity against Salmonella paratyphi B ATCC CMCC50094 assessed as bacterial growth inhibition incubated for 48 hrs by broth dilution susceptibility test; assay type: functional
Shigella flexneri = assay: Antibacterial activity against Shigella flexneri ATCC 12022 assessed as bacterial growth inhibition incubated for 48 hrs by broth dilution susceptibility test; assay type: functional
[11] = test system: Lactobacillus acidophilus; assay: Antibacterial activity against Lactobacillus acidophilus ATCC CGMCC 1.577 assessed as bacterial growth inhibition incubated for 48 hrs by broth dilution susceptibility test; assay type: functional
Fusobacterium nucleatum [12] = assay: Antibacterial activity against Fusobacterium nucleatum ATCC 23726 assessed as downregulation of NTR gene expression incubated for 48 hrs by RT-qPCR analysis; assay type: functional, organism-based
Fusobacterium nucleatum [13] = assay: Antibiofilm activity against Fusobacterium nucleatum ATCC 23726 assessed as downregulation of tnaA gene expression measured after 48 hrs by RT-qPCR analysis; assay type: functional, organism-based
L02 = assay: Downregulation of HPPD gene expression in human L02 cells at 10 to 50 uM incubated for 48 hrs by RT-qPCR analysis; assay type: functional, cell-based; conditions: dose 10-50 µM
[14] = Acute toxicity in ICR mouse assessed as death rate at 1250 to 2592 mg/kg, po measured after 7 days; assay type: organism-based; conditions: in vivo, dose 1250-2592 mg/kg, time 7 day, read-out: Activity
[15] = Acute toxicity in po dosed ICR mouse assessed as animal death measured after 7 days; assay type: organism-based; conditions: in vivo, time 7 day
[16] = Acute toxicity in po dosed ICR mouse assessed as heart damage at 1500 mg/kg, po measured after 7 days by H and E staining based analysis; assay type: organism-based; conditions: in vivo, 168 h, time 7 day
[17] = Acute toxicity in po dosed ICR mouse assessed as liver damage at 1500 mg/kg, po measured after 7 days by H and E staining based analysis; assay type: organism-based; conditions: in vivo, 168 h, time 7 day
[18] = Acute toxicity in po dosed ICR mouse assessed as spleen damage at 1500 mg/kg, po measured after 7 days by H and E staining based analysis; assay type: organism-based; conditions: in vivo, 168 h, time 7 day
[19] = Acute toxicity in po dosed ICR mouse assessed as lung damage at 1500 mg/kg, po measured after 7 days by H and E staining based analysis; assay type: organism-based; conditions: in vivo, 168 h, time 7 day
[20] = Acute toxicity in po dosed ICR mouse assessed as kidney damage at 1500 mg/kg, po measured after 7 days by H and E staining based analysis; assay type: organism-based; conditions: in vivo, 168 h, time 7 day
[21] = Metabolic stability in mouse liver microsomes assessed as half life at 1 uM incubated for 45 mins in presence of NADPH by LC-MS/MS analysis; assay type: ADME, Microsome
[22] = Drug metabolism assessed as NTR(unknown origin)-mediated metabolism at 10 mM incubated for 2 hrs in presence of NADH by LC-MS analysis; assay type: ADME; conditions: bacteria, 10000 µM
Fusobacterium nucleatum [23] = assay: Antibacterial activity against Fusobacterium nucleatum ATCC 23726 assessed as bacterial growth inhibition at 8 ug/ml incubated for 72 hrs by turbidimeter analysis; assay type: functional, organism-based; conditions: dose 8.0 µg/ml

SMILES: CC(C)(C)c1ccc(C(O)CCCN2CCC(C(O)(c3ccccc3)c3ccccc3)CC2)cc1 (stereo not given) [TERFENADINE]
- MIC50 (Fusobacterium nucleatum [1]): 16 µg/mL (≈ 33.9 µM)

SMILES: O=C(CCc1ccc([N+](=O)[O-])cc1)Nc1ccon1
- MIC50 (Fusobacterium nucleatum [1]): > 64 µg/mL

SMILES: O=C(NCc1ccccc1C(F)(F)F)c1ccc(C(F)(F)F)cc1[N+](=O)[O-]
- MIC50 (Fusobacterium nucleatum [1]): > 64 µg/mL

SMILES: O=C(NCc1ccncc1)c1ccc(C(F)(F)F)cc1[N+](=O)[O-]
- MIC50 (Fusobacterium nucleatum [1]): 64 µg/mL (≈ 197 µM)

SMILES: COC(=O)OCc1ccc(NC(=O)c2ccc(C(F)(F)F)cc2[N+](=O)[O-])cc1
- MIC50 (Fusobacterium nucleatum [1]): > 64 µg/mL

SMILES: Cn1c([N+](=O)[O-])cnc1COC(N)=O [RONIDAZOLE]
- MIC50 (Fusobacterium nucleatum [1]): 2 µg/mL (≈ 9.99 µM)

SMILES: NC(=O)c1ccc(NC(=O)c2ccc(C(F)(F)F)cc2)cc1
- MIC50 (Fusobacterium nucleatum [1]): > 64 µg/mL

SMILES: O=[N+]([O-])c1ccc(COc2ccc([N+](=O)[O-])c(Br)c2)o1
- MIC50 (Fusobacterium nucleatum [1]): 2 µg/mL (≈ 5.83 µM)
- MIC90 (Fusobacterium nucleatum [1]): 2 µg/mL (≈ 5.83 µM)
- IC50 (MC-38): 26 µM
- IC50 (HCT-116): 62 µM
- IC50 at 48 h [2]: 16 µM
- IC50 at 48 h [3]: 60 µM
- Activity (Fusobacterium nucleatum [4]): Active
- Activity (Fusobacterium nucleatum [5]): Dose-Dependent Effect
- Activity (Fusobacterium nucleatum [6]): ~100%
- inhibition (Fusobacterium nucleatum [7]): Dose-Dependent Effect
- inhibition at 1 µg/mL (Fusobacterium nucleatum [8]): > 50%
- MIC50 (Escherichia coli): 16 µg/mL (≈ 46.6 µM)
- MIC50 (Enterococcus faecalis): 64 µg/mL (≈ 187 µM)
- MIC50 (Staphylococcus aureus): 64 µg/mL (≈ 187 µM)
- MIC50 [9]: 32 µg/mL (≈ 93.3 µM)
- MIC50 (Akkermansia muciniphila): > 64 µg/mL
- MIC50 [10]: > 64 µg/mL
- MIC50 (Shigella flexneri): > 64 µg/mL
- MIC50 [11]: 64 µg/mL (≈ 187 µM)
- Activity (Fusobacterium nucleatum [12]): Dose-Dependent Effect
- Activity (Fusobacterium nucleatum [13]): Dose-Dependent Effect
- Activity (L02): Active
- mortality at 168 h [14]: 0%
- LD50 at 168 h [15]: > 2590 mg/kg
- Activity [16]: Non-Toxic
- Activity [17]: Non-Toxic
- Activity [18]: Non-Toxic
- Activity [19]: Non-Toxic
- Activity [20]: Non-Toxic
- half-life at 1 µM [21]: 21.3 min
- Drug metabolism [22]: Metabolite_Detected

SMILES: O=C(OCc1ccc([N+](=O)[O-])o1)c1ccc([N+](=O)[O-])c(Br)c1
- MIC50 (Fusobacterium nucleatum [1]): 4 µg/mL (≈ 10.8 µM)
- IC50 (MC-38): 42 µM
- IC50 (HCT-116): 66 µM
- IC50 at 48 h [2]: 31 µM
- IC50 at 48 h [3]: 175 µM
- Activity (Fusobacterium nucleatum [23]): Active
- Activity (Fusobacterium nucleatum [5]): Dose-Dependent Effect
- MIC50 (Escherichia coli): > 64 µg/mL
- MIC50 (Enterococcus faecalis): > 64 µg/mL
- MIC50 (Staphylococcus aureus): > 64 µg/mL
- MIC50 [9]: > 64 µg/mL
- MIC50 (Akkermansia muciniphila): > 64 µg/mL
- MIC50 [10]: 64 µg/mL (≈ 172 µM)
- MIC50 (Shigella flexneri): > 64 µg/mL
- MIC50 [11]: 64 µg/mL (≈ 172 µM)

SMILES: CS(=O)(=O)c1ccc(C(=O)C2C(=O)CCCC2=O)c(Cl)c1COCC(F)(F)F [TEMBOTRIONE]
- MIC50 (Fusobacterium nucleatum [1]): > 64 µg/mL

SMILES: CN(N=O)C(=O)N[C@@H](C=O)[C@@H](O)[C@H](O)[C@H](O)CO [STREPTOZOCIN]
- MIC50 (Fusobacterium nucleatum [1]): 0.125 µg/mL (≈ 0.471 µM)

SMILES: Cc1cc(NC(=O)c2ccc(C(F)(F)F)cc2[N+](=O)[O-])on1
- MIC50 (Fusobacterium nucleatum [1]): > 64 µg/mL

SMILES: O=C1NCCN1CCN1CCC(c2cn(-c3ccc(F)cc3)c3ccc(Cl)cc23)CC1 [SERTINDOLE]
- MIC50 (Fusobacterium nucleatum [1]): 16 µg/mL (≈ 36.3 µM)

SMILES: O=C(Cn1cnc(=O)c2ccc(Cl)cc21)Nc1ccc([N+](=O)[O-])cc1Cl
- MIC50 (Fusobacterium nucleatum [1]): 64 µg/mL (≈ 163 µM)

SMILES: OC1(c2ccc(Cl)c(C(F)(F)F)c2)CCN(CCCC(c2ccc(F)cc2)c2ccc(F)cc2)CC1 [PENFLURIDOL]
- MIC50 (Fusobacterium nucleatum [1]): 8 µg/mL (≈ 15.3 µM)

SMILES: O=[N+]([O-])c1ccc(COc2ccc([N+](=O)[O-])c(C(F)(F)F)c2)o1
- MIC50 (Fusobacterium nucleatum [1]): 4 µg/mL (≈ 12 µM)
- IC50 (MC-38): 38 µM
- IC50 (HCT-116): 52 µM
- IC50 at 48 h [2]: 9.6 µM
- IC50 at 48 h [3]: 21 µM
- Activity (Fusobacterium nucleatum [4]): Active
- Activity (Fusobacterium nucleatum [5]): Dose-Dependent Effect
- inhibition (Fusobacterium nucleatum [7]): Dose-Dependent Effect
- MIC50 (Escherichia coli): 64 µg/mL (≈ 193 µM)
- MIC50 (Enterococcus faecalis): 64 µg/mL (≈ 193 µM)
- MIC50 (Staphylococcus aureus): 64 µg/mL (≈ 193 µM)
- MIC50 [9]: 32 µg/mL (≈ 96.3 µM)
- MIC50 (Akkermansia muciniphila): > 64 µg/mL
- MIC50 [10]: 64 µg/mL (≈ 193 µM)
- MIC50 (Shigella flexneri): > 64 µg/mL
- MIC50 [11]: > 64 µg/mL
